Laboratory results reported in US7709479B1, “Quinazoline derivatives and their use as pharmaceuticals” (AstraZeneca, priority 1999, dated 2010).

How the values were obtained:
MCF-7 cells [1] = experiment: In vitro cell proliferation assay, Assay 2 (BrdU incorporation); format: cell-based; conditions: Homo sapiens, MCF7; MCF-7, 48 hours with compound, 2 hour labelling; read-out: concentration giving 50% inhibition of BrdU incorporation
MCF-7 cells [2] = experiment: In vitro cell proliferation assay, Assay 1 (CyQUANT cell density); format: cell-based; conditions: Homo sapiens, MCF7, 72 h; MCF-7, 3 days with compound; read-out: concentration giving 50% inhibition of cell proliferation
Excerpt: (b) In Vitro Cell Proliferation Assay
These and other assays can be used to determine the ability of a test compound to inhibit the growth of adherent mammalian cell lines, for example the human tumour cell line MCF7.
Assay 1: MCF-7 (ATCC HTB-22) or other adherent cells were typically seeded at 1×10^3 cells per well (excluding the peripheral wells) in DMEM (Sigma Aldrich) without phenol red, plus 10% foetal calf serum, 1% L-glutamine and 1% penicillin/streptomycin in 96 well tissue culture treated clear plates (Costar). The following day (day 1), the media was removed from a no treatment control plate and the plate stored at −80° C. The remaining plates were dosed with compound (diluted from 10 mM stock in DMSO using DMEM (without phenol red, 10% FCS, 1% L-glutamine, 1% penicillin/streptomycin). Untreated control wells were included on each plate. After 3 days in the presence/absence of compound (day 4) the media was removed and the plates stored at −80° C. Twenty four hours later the plates were thawed at room temperature and cell density determined using the CyQUANT cell proliferation assay kit (c-7026/c-7027 Molecular Probes Inc.) according to manufacturers directions. Briefly, 200 μl of a cell lysis/dye mixture (10 μl of 20× cell lysis buffer B, 190 μl of sterile water, 0.25 μl of CyQUANT GR dye) was added to each well and the plates incubated at room temperature for 5 minutes in the dark. The fluorescence of the wells was then measured using a fluorescence microplate reader (gain 70, 2 reads per well, 1 cycle with excitation 485 nm and emission 530 nm using a CytoFluor plate reader (PerSeptive Biosystems Inc.)). The values from day 1 and day 4 (compound treated) together with the values from the untreated cells were used to determine the dilution range of a test compound that gave 50% inhibition of cell proliferation. Compound no. 1 in Table 1 was effective in this test at 8.03 μM and compound no. 101 in Table 4 was effective in this test at 1.06 μM. […] The optical density of the wells was then determined at 690 nm wavelength using a Titertek Multiscan plate reader. […]

MCF7 cells = experiment: In vitro cell cycle analysis assay (FACS DNA content); format: cell-based, human; conditions: 24 hours
Protocol: This assay determines the ability of a test compound to arrest cells in specific phases of the cell cycle. Many different mammalian cell lines could be used in this assay and MCF7 cells are included here as an example. MCF-7 cells were seeded at 3×10^5 cells per T25 flask (Costar) in 5 ml DMEM (no phenol red 10% FCS, 1% L-glutamine 1% penicillin/streptomycin). Flasks were then incubated overnight in a humidified 37° C. incubator with 5% CO2. The following day 1 ml of DMEM (no phenol red 10% FCS, 1% L-glutamine 1% penicillin/streptomycin) carrying the appropriate concentration of test compound solubilised in DMSO was added to the flask. A no compound control treatments was also included (0.5% DMSO). The cells were then incubated for a defined time (usually 24 hours) with compound. After this time the media was aspirated from the cells and they were washed with 5 ml of prewarmed (37° C.) sterile PBSA, then detached from the flask by brief incubation with trypsin and followed by resuspension in 10 ml of 1% Bovine Serum Albumin (BSA, Sigma-Aldrich Co.) in sterile PBSA. The samples were then centrifuged at 2200 rpm for 10 min. The supernatant was aspirated and the cell pellet was resuspended in 200 μl of 0.1% (w/v) Tris sodium citrate, 0.0564% (w/v) NaCl, 0.03% (v/v) Nonidet NP40, [pH 7.6]. Propridium Iodide (Sigma Aldrich Co.) was added to 40 μg/ml and RNAase A (Sigma Aldrich Co.) to 100 μg/ml. The cells were then incubated at 37° C. for 30 minutes. The samples were centrifuged at 2200 rpm for 10 min, the supernatant removed and the remaining pellet (nuclei) resuspended in 200 μl of sterile PBSA. Each sample was then syringed 10 times using 21 gauge needle. The samples were then transferred to LPS tubes and DNA content per cell analysed by Fluorescence activated cell sorting (FACS) using a FACScan flow cytometer (Becton Dickinson). Typically 25000 events were counted and recorded using CellQuest v1.1 software (Verity Software). Cell cycle distribution of the population was calculated using Modfit software (Verity Software) and expressed as percentage of cells in G0/G1, S and G2/M phases of the cell cycle.

IC50 (MCF-7 cells [1]) [µM] | IC50 (MCF-7 cells [2]) [µM] | Compound | % Cells in G1 (MCF7 cells; 25 μM) [%] | % Cells in G2/M (MCF7 cells; 25 μM) [%] | % Cells in S (MCF7 cells; 25 μM) [%] | % Cells in G1 (MCF7 cells; 2.12 μM) [%] | % Cells in G2/M (MCF7 cells; 2.12 μM) [%] | % Cells in S (MCF7 cells; 2.12 μM) [%]
1.25 | 8.03 | COc1cc2ncnc(Nc3ccc(NC(=O)c4ccccc4)cc3)c2cc1OC [Compound 1] | 25.82 | 56.47 | 17.71 | – | – | –
0.159 to 0.209 | 1.06 | COc1cc2c(Nc3ccc(NC(=O)c4ccccc4)cc3)ncnc2cc1OCCCN1CCOCC1 [Compound 101] | – | – | – | 19.69 | 68.21 | 12.4
– | 1.57 | COc1cc2ncnc(Nc3ccc(C(=O)NCc4ccc(F)cc4)cc3)c2cc1OC [Compound 557] | – | – | – | – | – | –
